Experimental findings from ChEMBL document CHEMBL1126816, “Inhibition of human leukocyte elastase. 6. Inhibition by 6-substituted penicillin esters” (Bioorg Med Chem Lett, 1993) are described below.

The IC50 is the concentration at which inhibition is half-maximal. High values mean a need for much substance, low ones inhibition by little substance.

The structures appear in SMILES notation.

The target in the first assay is T1, Neutrophil elastase (Homo sapiens, UniProt P08246).
T1 sequence (P08246 whole entry): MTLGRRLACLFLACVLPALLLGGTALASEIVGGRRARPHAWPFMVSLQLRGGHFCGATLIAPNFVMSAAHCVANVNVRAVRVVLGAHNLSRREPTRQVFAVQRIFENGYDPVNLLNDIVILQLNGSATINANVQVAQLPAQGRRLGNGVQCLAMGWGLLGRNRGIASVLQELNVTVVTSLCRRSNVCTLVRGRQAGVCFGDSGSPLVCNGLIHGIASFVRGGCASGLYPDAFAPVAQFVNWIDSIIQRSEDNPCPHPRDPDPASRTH
Kind of assay: Inhibitory concentration required against Human Leukocyte Elastase (HLE) for 50% reduction in rate of hydrolysis of (suc-Ala-Ala-Pro-Ala-p-NA) peptide.
Molecule `C[C@H](OC(=O)NCc1ccccc1)[C@H]1C(=O)N2[C@@H](C(=O)OCc3ccccc3)C(C)(C)S(=O)(=O)[C@H]12` had an IC50 of 7 µM. Regarding `C[C@@H](OC(=O)NCc1ccccc1)[C@@H]1C(=O)N2[C@@H](C(=O)OCc3ccccc3)C(C)(C)S(=O)(=O)[C@H]12`, the half-inhibitory concentration (IC50) turned out to be 10 µM. On the same count and under the same terms, as for `C[C@@H](OC(=O)NCc1ccccc1)[C@H]1C(=O)N2[C@@H](C(=O)OCc3ccccc3)C(C)(C)S(=O)(=O)[C@H]12`, the figure is 0.7 µM; as for `C[C@H](OC(=O)NCc1ccccc1)[C@@H]1C(=O)N2[C@@H](C(=O)OCc3ccccc3)C(C)(C)S(=O)(=O)[C@H]12`, 0.3 µM; as for `CC1(C)[C@H](C(=O)OCc2ccccc2)N2C(=O)[C@H](Cl)[C@H]2S1(=O)=O`, 14 µM. As to `CO[C@H]1C(=O)N2[C@@H](C(=O)OC(C)(C)C)C(C)(C)S(=O)(=O)[C@H]12`, the IC50 is greater than 20 µM.

Consider `CC1(C)[C@H](C(=O)OCC(F)(F)F)N2C(=O)[C@H](NC(=O)C(F)(F)F)[C@H]2S1(=O)=O`, for which the IC50 is 0.1 µM. Regarding `CC1(C)S[C@@H]2[C@@H](NC(=O)C(F)(F)F)C(=O)N2[C@H]1C(=O)OCc1ccccc1`, the IC50 was determined as 4 µM. In turn, `CC(=O)O[C@H]1C(=O)N2[C@@H](C(=O)OCc3ccccc3)C(C)(C)S(=O)(=O)[C@H]12` showed a half-inhibitory concentration (IC50) of 0.2 µM. For the molecule `CC(=O)O[C@H]1C(=O)N2[C@@H](C(=O)OCc3ccccc3)C(C)(C)[S+]([O-])[C@@H]12` (stereo not given in full), the IC50 was 5 µM.

`CC1(C)[C@H](C(=O)OCc2ccccc2)N2C(=O)[C@H](OC(=O)Cc3ccccc3)[C@H]2S1(=O)=O` showed an IC50 of 4 µM.

For the molecule `CC1(C)[C@H](C(=O)OCC(F)(F)F)N2C(=O)[C@@H](NC(=O)C(F)(F)F)[C@H]2S1(=O)=O`, the IC50 worked out at 3 µM. Molecule `CC1(C)[C@H](C(=O)OCc2ccccc2)N2C(=O)[C@H](OCc3ccccc3)[C@H]2S1(=O)=O` came in with an IC50 of 4 µM. Regarding `COC(=O)[C@@H]1N2C(=O)[C@H](OC)[C@H]2S(=O)(=O)C1(C)C`, it took 20 µM to reach half-maximal inhibition (IC50). Turning to `CCO[C@H]1C(=O)N2[C@@H](C(=O)OCc3ccccc3)C(C)(C)S(=O)(=O)[C@H]12`, the IC50 was found to be 2 µM. Turning to `Cc1ccc(S(=O)(=O)O[C@H]2C(=O)N3[C@@H](C(=O)OCc4ccccc4)C(C)(C)S(=O)(=O)[C@H]23)cc1`, the IC50 is 0.05 µM. The molecule `CO[C@@]1(NC(=O)C(F)(F)F)C(=O)N2[C@@H](C(=O)OCc3ccccc3)C(C)(C)S(=O)(=O)[C@@H]21` registered an IC50 of 9 µM.

Molecule `CN(C(=O)C(F)(F)F)[C@@H]1C(=O)N2[C@@H](C(=O)OCc3ccccc3)C(C)(C)S(=O)(=O)[C@H]12` came in with an IC50 of 0.7 µM. The molecule `CC1(C)[C@H](C(=O)OCc2ccccc2)N2C(=O)[C@H](NC(=O)C(F)(F)F)[C@H]2S1(=O)=O` yielded an IC50 of 0.15 µM.

In turn, `CC1(C)S[C@@H]2[C@H](NC(=O)C(F)(F)F)C(=O)N2[C@H]1C(=O)OCc1ccccc1` gave an IC50 of 12 µM.

As for `CC1(C)[C@H](C(=O)OCc2ccccc2)N2C(=O)[C@@](C)(NC(=O)C(F)(F)F)[C@H]2S1(=O)=O`, the IC50 is greater than 20 µM. The same measure, in the same setting: the same measure for `CC1(C)[C@H](C(=O)OCc2ccccc2)N2C(=O)[C@@H](COC(=O)NCc3ccccc3)[C@H]2S1(=O)=O`: 0.7 µM; for `CC1(C)[C@H](C(=O)OCc2ccccc2)N2C(=O)[C@H](OC(=O)COc3ccccc3)[C@H]2S1(=O)=O`: 5 µM. The molecule `CC1(C)[C@H](C(=O)OCc2ccccc2)N2C(=O)[C@H](COC(=O)NCc3ccccc3)[C@H]2S1(=O)=O` displayed an IC50 of 4 µM. In turn, `CC(=O)O[C@H]1C(=O)N2[C@@H]1SC(C)(C)[C@@H]2C(=O)OCc1ccccc1` gave a concentration for half-maximal inhibition (IC50) of 10 µM.

For `CO[C@H]1C(=O)N2[C@@H](C(=O)OCC(F)(F)F)C(C)(C)S(=O)(=O)[C@H]12`, half-maximal inhibition (IC50) was put at 4 µM. Consider `CN(C(=O)C(F)(F)F)[C@H]1C(=O)N2[C@@H](C(=O)OCc3ccccc3)C(C)(C)S(=O)(=O)[C@H]12`, for which the IC50 is 0.2 µM. `CO[C@]1(NC(=O)C(F)(F)F)C(=O)N2[C@@H](C(=O)OCc3ccccc3)C(C)(C)S(=O)(=O)[C@@H]21`: the IC50 was found to be 0.8 µM. The molecule `CC[C@@]1(NC(=O)C(F)(F)F)C(=O)N2[C@@H](C(=O)OCc3ccccc3)C(C)(C)S(=O)(=O)[C@@H]21` registered an IC50 of 3 µM.

Another assay deals with T1, Neutrophil elastase. The experiment in a line: Inhibitory concentration required against Human Leukocyte Elastase (HLE) for 50% reduction in rate of hydrolysis of (suc-Ala-Ala-Pro-Ala-p-NA) peptide;compound was inactive.
For the molecule `CC1(C)[C@H](C(=O)OCc2ccccc2)N2C(=O)[C@@H](NC(=O)C(F)(F)F)[C@H]2S1(=O)=O`, 2 µM corresponded to half-maximal inhibition (IC50).
